Results as given in article PMC9000318, “Identification and Validation of a New Peptide Targeting Pancreatic Beta Cells” (Molecules, 2022).
Ends that are not written are not given here. * marks the point of attachment. FITC = O=C1OC2(c3ccc(O)cc3Oc3cc(O)ccc32)c2ccc(NC(=S)*)cc21

Experiments:
[1] = test system: KPC cells; test: FACS binding to KPC cells; type: cell-based, murine; settings: flow cytometry, FITC-labeled peptide, 2 h incubation
Protocol: (§1) Purified FITC-labeled candidate peptides were used for the peptide-based immunofluorescence assay to confirm the selective binding of the selected peptides to the used cells. FITC-labeled peptide-based immunofluorescence assay was performed, and FITC-labeled peptide (1 μM) was added to each well and then incubated for 2 h at room temperature. The wells were washed with PBS three times and directly mounted with vectashield mounting medium after DAPI staining. The cells were visualized under fluorescence microscope. In addition, to determine the binding location of the peptide, MIN6 cells were labeled with LNTPLKS-FITC and further observed under confocal microscope. For fluorescence activated cell sorting, purified islets and KPC cells were incubated in 6 well plates; 24 h later, FITC-labeled peptide was added with a final concentration of 1 μM. After 2 h of incubation, cells were washed with PBS three times and harvested for FACS to quantitatively analyze the binding affinity of the peptide to the different cell types (islets was digested to single cells before FACS analyzing).

[2] = test system: primary islet cells
Source text: Mice insulinoma cell line MIN6 were obtained from the Academy of Sciences Cell Bank of Shanghai and routinely cultured in RPMI-1640 medium (Gibco, Shanghai, China), supplemented with 10% (v/v) fetal bovine serum (FBS) and 1% (v/v) penicillin-streptomycin. The murine pancreatic cancer cell line KPC and the hepatocellular carcinoma cell line (HCC-LM3) were kindly provided by Tingbo Liang’s Research Group (Zhejiang University, Hangzhou, China). KPC cells were maintained in RPMI-1640 medium (Gibco, Shanghai, China), supplemented with 20% FBS, 1% sodium pyruvate (100×), and 1% MEM Non-Essential Amino Acids (NEAA 100×). HCC-LM3 cells were maintained in Dulbecco’s modified Eagle’s medium (DMEM; Gibco, Shanghai, China) with 10% FBS and 1% (v/v) penicillin-streptomycin. The primary islets were isolated by collagenase digestion from ICR (Institute of Cancer Research) mice and separated by density gradient centrifugation as previously described. The islets were incubated at 37 °C in 2 mL RPMI-1640 medium at a density of 100–150 islets per well in 6-well plates and maintained at 37 °C with 5% CO2.
To investigate the effect of LNTPLKS on the viability of the islet cells, different concentrations of LNTPLKS (0, 0.5, 1, 10 μM) were separately co-incubated with islet cells in 96-well plates (triplicate wells for each concentration of peptide). Twenty-four hours later, MTT was added and incubated for 4 h. DMSO was added after centrifugation and the color development was read at an OD of 570 nm. Islet cells were incubated with different concentrations of peptides for 24 h at 37 °C. The supernatant was discarded, cells were rinsed twice with PBS, KRB buffer containing 3.3 mM glucose was added, and the cells were incubated for 30 min at 37 °C. The supernatant was discarded and cells were incubated with KRB buffer containing low glucose (3.3 mM) or high glucose (16.7 mM) for 1 h.

[3] = test system: islet cells; test: FACS binding to islet cells; type: cell-based, ICR mouse; settings: flow cytometry, FITC-labeled peptide, 2 h incubation, islets digested to single cells
Protocol: as §1

[4] = test system: islets grafts; test: Binding to islet grafts under the renal capsule, kidney slices; settings: islets transplanted under renal capsule of ICR mice, slices incubated 2 h
Protocol: (§2) In order to evaluate whether the LNTPLKS-FITC peptide could directly bind islets within the pancreas, the pancreas of ICR mice was collected and frozen sections were prepared. The cryosections were incubated with anti-insulin solution and LNTPLKS-FITC 2 h after treatment with BSA, followed by observation under fluorescence microscope. To determine whether LNTPLKS could bind to human islet, staining of paraffin-embedded human tissue sections were performed. Briefly, slices were deparaffinized and subsequently permeabilized by heating in antigen-unmasking solutions. After blocking with 2% BSA, slices were incubated with anti-insulin antibody at 4 °C overnight. Cy3-conjugated goat anti-mouse IgG (1:300 dilutions) antibody was incubated for 50 min at 24 °C. Then, the slices were incubated with DAPI and LNTPLKS-FITC or control peptide for 1 h at room temperature. Tissue slides were analyzed using a fluorescence microscope. To further confirm the specificity of peptide to islet, we transplanted islets under renal capsule of the ICR mice. Kidney slices containing islets grafts were prepared and incubated with LNTPLKS-FITC peptide. After 2 h of incubation, the slices were observed under fluorescence microscope.

[5] = test system: islets in pancreas cryosections; test: Binding to in situ islets, mouse pancreas cryosections; parameters: species or system ICR mice; settings: 2 h incubation, anti-insulin counterstain, fluorescence microscope
Protocol: as §2

[6] = test system: pancreatic islet; test: In vivo targeting of pancreatic islets after tail vein injection; parameters: species or system mice; settings: pancreas sliced, data not shown
Source text: The final goal of developing a beta cell-specific molecular probe is to provide a non-invasive, in vivo imaging method for measuring BCM during diabetes progression and tracking islet grafts after islet transplantation, so that necessary and timely intervention can be performed. Therefore, all presumed beta cell-specific probes screened in vitro have to be validated by in vivo studies. As the first step, we tested islet specificity using pancreatic slices and islet graft-containing slices. […] However, when it comes to in vivo studies, the results were obscure. We injected FITC-conjugated LNTPLKS peptide into the mice via tail vein and the pancreas was then sliced to detect the targeting of the peptide in the pancreatic islet. The fluorescence within pancreas was rather weak (data not shown). The unsatisfied result might be attributed to the degradation of the peptide in the body. Increasing peptide stability and its circulation time will facilitate cellular uptake. In the following study, the peptide LNTPLKS will be further processed by chemical modification (such as PEGylation) to protect the peptide from degradation in vivo without changing the targeting ability of the peptide, or by conjugating it with other imaging materials (iron oxide nanoparticle, radionuclide, etc.) to be monitored by MR, SPECT, or other imaging modalities with high sensitivity.

[7] = test system: human islets; test: Binding to human islets, paraffin-embedded pancreatic tissue sections; settings: paraffin sections from a donor, co-stained with anti-insulin antibody, 1 h room temperature
Protocol: as §2

[8] = test system: LM3 tumor; settings: mouse, in vivo, 5 mg/kg
Source text: (§3) In total, 2 × 10^6 MIN6 cells and HCC-LM3 cells were subcutaneously inoculated in male nude mice for 4 weeks separately. After 16 days, the tumor grew to approximately 1.0 cm^3. […] The tumor, spleen, kidney and liver were harvested and their fluorescence intensity was quantified by in vivo imaging system (IVIS).

[9] = test system: MIN6 tumor; settings: mouse, in vivo, 5 mg/kg
Source text: as §3

[10] = test system: islet cells; test: FITC-labeled peptide-based immunofluorescence assay on purified islets; type: cell-based, ICR mouse; settings: fluorescence microscope
Protocol: as §1

[11] = test system: MIN6 cells; test: Confocal microscopy, localization of the peptide in MIN6 cells; type: cell-based, mice; settings: DAPI counterstain
Protocol: as §1

[12] = test system: MIN6 cells; test: FITC-labeled peptide-based immunofluorescence assay (ICC) on MIN6 cells; parameters: species or system mice; settings: FITC-labeled peptide 1 μM, 2 h, room temperature; fluorescence microscope; KPC cells as cell control
Protocol: as §1

“LNTPLKS [seven-amino acid peptide targeting beta cell line MIN6, screened by phage display]” was tested, and the “mean fluorescence peak point, KPC cell group” value [1] was “no such shift”, the “viability of the islet cells” value ([2]; MTT, 24 h co-incubation, peptide concentration between 500 and 1 μM, triplicate wells) was “only slightly affected” and the “glucose-stimulated insulin secretion (GSIS)” value ([2]; peptide 24 h at 37 °C, between 500 and 1 μM, KRB buffer high glucose 16.7 mM, 1 h, insulin ELISA, three tests) was “only slightly affected”. The “basical insulin secretion (BIS)” value ([2]; peptide 24 h at 37 °C, between 500 and 1 μM, KRB buffer low glucose 3.3 mM, 1 h, insulin ELISA, three tests) was “only slightly affected” and the “mean fluorescence peak point, islet group” value [3] was “shifted to the right side”.

“SPPTGIN-FITC [random peptide SPPTGIN conjugated with FITC at the N-terminus, negative control, reference compound]” was tested, and the “fluorescence of islets grafts in kidney slices” value [4] was “no fluorescence was observed” and the “fluorescence of islets in mouse pancreas cryosections” value [5] was “no fluorescent signal was merged with the anti-insulin signal”.

For “{FITC}-LNTPLKS [LNTPLKS-FITC, LNTPLKS conjugated with fluorescein isothiocyanate (FITC) at the N-terminus]”, the “fluorescence of islets grafts in kidney slices” value [4] was “fluorescent”, the “fluorescence within pancreas after injection” value [6] was “rather weak” and the “binding to human islets in pancreatic tissue sections” value [7] was “identifiable within the islets and co-localized with insulin-producing cells”. For the same substance, the “fluorescence average counts, kidney” value [8] was 1.20 × 10^3 counts, the “fluorescence average counts, liver” value [8] was 2.15 × 10^3 counts and the “fluorescence average counts, spleen” value [8] was 5.24 × 10^2 counts. The “fluorescence average counts, tumor” value [8] was 9.47 × 10^2 counts, the “fluorescence of islets in mouse pancreas cryosections” value [5] was “fluorescent, whereas the surrounding exocrine tissues were not” and the “fluorescence average counts, kidney” value [9] was 1.14 × 10^3 counts. For the same substance, the “fluorescence average counts, liver” value [9] was 1.81 × 10^3 counts, the “fluorescence average counts, spleen” value [9] was 4.84 × 10^2 counts and the “fluorescence average counts, tumor” value [9] was 1.80 × 10^3 counts. For the same substance, the “affinity for the islet cells (fluorescent images)” value [10] was “high affinity”, the “localization of the peptide on MIN6 cells” value [11] was “internalized to the cytoplasm” and the “FITC signal in MIN6 cells” value [12] was “significantly higher FITC signal”.
